Test results published in patent US10526327B2, “Histone demethylase inhibitors” (CELGENE QUANTICEL RESEARCH, INC., priority 2013, dated 2020).

Key:
Jarid1B = molecular target: T1, Jarid1B (Homo sapiens, UniProt Q9UGL1); test: Jarid1B in vitro enzyme inhibition assay (TR-FRET); format: biochemical
T1 construct: purchased BPS Bioscience or custom made by MolecularThroughput 50121
T1 sequence (Q9UGL1 2-751): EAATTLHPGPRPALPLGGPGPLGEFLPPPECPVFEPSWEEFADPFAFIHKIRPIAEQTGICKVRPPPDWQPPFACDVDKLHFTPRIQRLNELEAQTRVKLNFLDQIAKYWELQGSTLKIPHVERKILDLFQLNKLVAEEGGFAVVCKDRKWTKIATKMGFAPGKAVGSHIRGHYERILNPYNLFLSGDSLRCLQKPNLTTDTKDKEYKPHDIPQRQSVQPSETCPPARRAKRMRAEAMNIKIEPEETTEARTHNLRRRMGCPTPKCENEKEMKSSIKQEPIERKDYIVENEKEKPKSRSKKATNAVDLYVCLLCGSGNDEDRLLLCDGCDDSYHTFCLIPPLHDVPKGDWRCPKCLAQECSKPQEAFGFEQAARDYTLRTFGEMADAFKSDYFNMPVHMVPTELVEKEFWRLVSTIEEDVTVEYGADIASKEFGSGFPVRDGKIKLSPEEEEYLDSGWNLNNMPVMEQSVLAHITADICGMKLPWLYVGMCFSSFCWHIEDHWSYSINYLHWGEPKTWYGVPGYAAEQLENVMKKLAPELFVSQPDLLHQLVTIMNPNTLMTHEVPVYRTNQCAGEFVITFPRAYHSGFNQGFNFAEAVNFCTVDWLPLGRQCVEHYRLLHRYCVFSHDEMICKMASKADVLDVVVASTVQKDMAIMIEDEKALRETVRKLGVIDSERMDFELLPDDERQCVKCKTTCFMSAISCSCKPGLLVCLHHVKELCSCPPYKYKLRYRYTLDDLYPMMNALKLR
Method in brief: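 TR-FRET read-out of demethylated product (Eu-anti-H3K4me1-2, streptavidin-APC) after EDTA quench; ratio 665/615 fitted to IC50. Reaction: 30 min at RT, 0.8 nM baculovirus Jarid1B residues 2-751, 2 μM α-ketoglutarate, 300 nM H3K4me3-biotin peptide, pH 7.3 buffer with Fe(II) and ascorbate.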

JMJD2C = molecular target: T2, JMJD2C (Homo sapiens, UniProt Q9H3R0); test: JMJD2C in vitro enzyme inhibition assay (TR-FRET); format: biochemical
T2 construct: purchased BPS Bioscience 50105
T2 sequence (Q9H3R0 2-372): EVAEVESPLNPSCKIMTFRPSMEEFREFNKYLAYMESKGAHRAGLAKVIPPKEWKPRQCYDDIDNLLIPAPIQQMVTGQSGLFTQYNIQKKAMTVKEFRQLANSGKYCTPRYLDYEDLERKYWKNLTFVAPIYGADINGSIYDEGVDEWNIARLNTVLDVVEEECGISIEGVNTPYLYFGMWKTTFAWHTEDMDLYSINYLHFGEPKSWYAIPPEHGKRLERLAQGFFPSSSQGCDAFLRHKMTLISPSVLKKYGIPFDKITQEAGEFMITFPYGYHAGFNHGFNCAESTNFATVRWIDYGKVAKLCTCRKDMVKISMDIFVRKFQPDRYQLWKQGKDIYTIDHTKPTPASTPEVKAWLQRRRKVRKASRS
Method in brief: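 IC50 came from 665/615 TR-FRET ratios (Eu-anti-H3K9me2 antibody, streptavidin-APC, EDTA quench) over 11-point inhibitor series. Reactions ran 30 min at room temperature: 0.3 nM JMJD2C (AA 2-372, baculovirus), 300 nM biotinylated H3K9me3 peptide, 2 μM alpha-ketoglutarate, 2 μM Fe(II), ascorbate, pH 7.3.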

Row | Structure (SMILES) | IC50 (Jarid1B) [µM] | IC50 (JMJD2C) [µM]
1 | O=S(=O)(C1CC1)N1CCCC(n2cc(Oc3nc(O)c4ccncc4n3)cn2)C1 (stereo in doubt) [Example 151, 2-({1-[(3S)-1-(cyclopropanesulfonyl)piperidin-3-yl]-1H-pyrazol-4-yl}oxy)pyrido[3,4-d]pyrimidin-4-ol] | ≤ 0.1 | ≤ 0.1
2 | Oc1nc(Oc2cnn(C3CCCN(c4ccc(F)cc4)C3)c2)nc2cnccc12 (stereo in doubt) [Example 169, 2-({1-[(3R)-1-(4-fluorophenyl)piperidin-3-yl]-1H-pyrazol-4-yl}oxy)pyrido[3,4-d]pyrimidin-4-ol] | ≤ 0.1 | ≤ 0.1
3 | Oc1nc(OCCC(F)(F)F)nc2cnccc12 [Example 13, 2-(3,3,3-trifluoropropoxy)pyrido[3,4-d]pyrimidin-4-ol] | 0.1 to 1 | 0.1 to 1
4 | CC(C)COc1nc(O)c2ccncc2n1 [Example 14, 2-(2-methylpropoxy)pyrido[3,4-d]pyrimidin-4-ol] | 0.1 to 1 | 0.1 to 1
5 | CC(C)CCOc1nc(O)c2ccncc2n1 [Example 15, 2-(3-methylbutoxy)pyrido[3,4-d]pyrimidin-4-ol] | ≤ 0.1 | 0.1 to 1
6 | CCC(C)COc1nc(O)c2ccncc2n1 (stereo not shown) [Example 16, 2-(2-methylbutoxy)pyrido[3,4-d]pyrimidin-4-ol] | 0.1 to 1 | 0.1 to 1
7 | CC(COc1nc(O)c2ccncc2n1)c1ccccc1 (stereo not shown) [Example 17, 2-(2-phenylpropoxy)pyrido[3,4-d]pyrimidin-4-ol] | 0.1 to 1 | 0.1 to 1
8 | Oc1nc(OCCc2ccccc2)nc2cnccc12 [Example 18, 2-(2-phenylethoxy)pyrido[3,4-d]pyrimidin-4-ol] | ≤ 0.1 | 0.1 to 1
9 | CC(Cc1ccccc1)Oc1nc(O)c2ccncc2n1 (stereo not shown) [Example 19, 2-(1-phenylpropan-2-yloxy)pyrido[3,4-d]pyrimidin-4-ol] | 1 to 10 | 1 to 10
10 | Oc1nc(OCCCC(F)(F)F)nc2cnccc12 [Example 20, 2-(4,4,4-trifluorobutoxy)pyrido[3,4-d]pyrimidin-4-ol] | ≤ 0.1 | 0.1 to 1
11 | CN(C)CCCOc1nc(O)c2ccncc2n1 [Example 21, 2-[3-(dimethylamino)propoxy]pyrido[3,4-d]pyrimidin-4-ol] | 1 to 10 | 0.1 to 1
12 | COCCOc1nc(O)c2ccncc2n1 [Example 22, 2-(2-methoxyethoxy)pyrido[3,4-d]pyrimidin-4-ol] | 0.1 to 1 | 0.1 to 1
13 | Cn1cnc(-c2nccc3c(O)nc(OCc4ccccc4C(F)(F)F)nc23)c1 [Example 107, 8-(1-methyl-1H-imidazol-4-yl)-2-{[2-(trifluoromethyl)phenyl]methoxy}pyrido[3,4-d]pyrimidin-4-ol] | ≤ 0.1 | 0.1 to 1
14 | Cn1cnc(-c2nccc3c(O)nc(O[C@H](c4ccccc4)C(F)(F)F)nc23)c1 [Example 108, 8-(1-methyl-1H-imidazol-4-yl)-2-[(1R)-2,2,2-trifluoro-1-phenylethoxy]pyrido[3,4-d]pyrimidin-4-ol] | 1 to 10 | 0.1 to 1
15 | Cn1cnc(-c2nccc3c(O)nc(O[C@@H](c4ccccc4)C(F)(F)F)nc23)c1 [Example 109, 8-(1-methyl-1H-imidazol-4-yl)-2-[(1S)-2,2,2-trifluoro-1-phenylethoxy]pyrido[3,4-d]pyrimidin-4-ol] | 1 to 10 | 0.1 to 1
16 | CCC(Oc1nc(O)c2ccnc(-c3cn(C)cn3)c2n1)C(F)(F)F (stereo not shown) [Example 110, 8-(1-methyl-1H-imidazol-4-yl)-2-[(1,1,1-trifluorobutan-2-yl)oxy]pyrido[3,4-d]pyrimidin-4-ol] | 0.1 to 1 | 1 to 10

Row | Structure (SMILES) | IC50 (Jarid1B) [µM] | IC50 (JMJD2C) [µM]
17 | Cn1cnc(-c2nccc3c(O)nc(OCc4ccc(C(F)(F)F)cc4)nc23)c1 [Example 111, 8-(1-methyl-1H-imidazol-4-yl)-2-{[4-(trifluoromethyl)phenyl]methoxy}pyrido[3,4-d]pyrimidin-4-ol] | 0.1 to 1 | 0.1 to 1
18 | Cn1cnc(-c2nccc3c(O)nc(OCc4ccc(Cl)cc4)nc23)c1 [Example 112, 2-[(4-chlorophenyl)methoxy]-8-(1-methyl-1H-imidazol-4-yl)pyrido[3,4-d]pyrimidin-4-ol] | ≤ 0.1 | 0.1 to 1
19 | Cn1cnc(-c2nccc3c(O)nc(Oc4ccc(Cl)c(Cl)c4)nc23)c1 [Example 113, 2-(3,4-dichlorophenoxy)-8-(1-methyl-1H-imidazol-4-yl)pyrido[3,4-d]pyrimidin-4-ol] | ≤ 0.1 | ≤ 0.1
20 | Oc1nc(Oc2ccc(Cl)c(Cl)c2)nc2cnccc12 [Example 114, 2-(3,4-dichlorophenoxy)pyrido[3,4-d]pyrimidin-4-ol] | ≤ 0.1 | ≤ 0.1
21 | CCC(c1ccccc1)n1cc(Oc2nc(O)c3ccncc3n2)cn1 (stereo not shown) [Example 115, 2-{[1-(1-phenylpropyl)-1H-pyrazol-4-yl]oxy}pyrido[3,4-d]pyrimidin-4-ol] | ≤ 0.1 | ≤ 0.1
22 | Oc1nc(Oc2cnn(C(c3ccccc3)C3CC3)c2)nc2cnccc12 (stereo not shown) [Example 116, 2-({1-[cyclopropyl(phenyl)methyl]-1H-pyrazol-4-yl}oxy)pyrido[3,4-d]pyrimidin-4-ol] | ≤ 0.1 | ≤ 0.1
23 | C[C@H](c1ccccc1)n1cc(Oc2nc(O)c3ccncc3n2)cn1 [Example 117, 2-({1-[(1R)-1-phenylethyl]-1H-pyrazol-4-yl}oxy)pyrido[3,4-d]pyrimidin-4-ol] | ≤ 0.1 | ≤ 0.1
24 | C[C@@H](c1ccccc1)n1cc(Oc2nc(O)c3ccncc3n2)cn1 [Example 118, 2-({1-[(1S)-1-phenylethyl]-1H-pyrazol-4-yl}oxypyrido) [3,4-d]pyrimidin-4-ol] | ≤ 0.1 | ≤ 0.1
25 | C[C@H](c1ccccc1F)n1cc(Oc2nc(O)c3ccncc3n2)cn1 [Example 119, 2-({1-[(1R)-1-(2-fluorophenyl)ethyl]-1H-pyrazol-4-yl}oxy)pyrido[3,4-d]pyrimidin-4-ol] | ≤ 0.1 | ≤ 0.1
26 | C[C@@H](c1ccccc1F)n1cc(Oc2nc(O)c3ccncc3n2)cn1 [Example 120, 2-({1-[(1s)-1-(2-fluorophenyl)ethyl]-1H-pyrazol-4-yl}oxy)pyrido[3,4-d]pyrimidin-4-ol] | ≤ 0.1 | ≤ 0.1
27 | Oc1nc(Oc2cnn(Cc3ccccc3Cl)c2)nc2cnccc12 [Example 121, 2-({1-[(2-chlorophenyl)methyl]-1H-pyrazol-4-yl}oxy)pyrido[3,4-d]pyrimidin-4-ol] | ≤ 0.1 | ≤ 0.1
28 | Oc1nc(Oc2cnn(Cc3cccc(Cl)c3)c2)nc2cnccc12 [Example 122, 2-({1-[(3-chlorophenyl)methyl]-1H-pyrazol-4-yl}oxy)pyrido[3,4-d]pyrimidin-4-ol] | ≤ 0.1 | ≤ 0.1
29 | Oc1nc(Oc2cnn(C3CCN(Cc4ccccc4)CC3)c2)nc2cnccc12 [Example 123, 2-{[1-(1-benzylpiperidin-4-yl)-1H-pyrazol-4-yl]oxy}pyrido[3,4-d]pyrimidin-4-ol] | ≤ 0.1 | ≤ 0.1
30 | Oc1nc(Oc2cnn(CCN3CCOCC3)c2)nc2cnccc12 [Example 124, 2-({1-[2-(morpholin-4-yl)ethyl]-1H-pyrazol-4-yl}oxy)pyrido[3,4-d]pyrimidin-4-ol] | ≤ 0.1 | ≤ 0.1
31 | Oc1nc(Oc2cnn([C@@H]3CCNC3)c2)nc2cnccc12 [Example 125, 2-({1-[(3R)-pyrrolidin-3-yl]-1H-pyrazol-4-yl}oxy)pyrido[3,4-d]pyrimidin-4-ol] | ≤ 0.1 | ≤ 0.1
32 | CCS(=O)(=O)N1CC[C@@H](n2cc(Oc3nc(O)c4ccncc4n3)cn2)C1 [Example 126, 2-({1-[(3R)-1-(ethanesulfonyl)pyrrolidin-3-yl]-1H-pyrazol-4-yl}oxy)pyrido[3,4-d]pyrimidin-4-ol] | ≤ 0.1 | ≤ 0.1
